Laboratory results taken from patent publication EP0908457B1, “3-(1,2-benzisothiazol- and isoxazol-5-Y1)-2,4(1H,3H)-pyrimidinedione or thione and 3-(1,2-benzisothiazol- and isoxazol-5-y1)-4(3H)-pyrimidinone or thione herbicidal agents” (BASF AKTIENGESELLSCHAFT, priority 1997, dated 1999).

Experiments:
[1] = test system: Monochoria vaginalis, Presl.; experiment: Preemergence weed control under flooded paddy conditions, MOOVA (Monochoria); type: in vivo; settings: preemergence, flooded paddy; for MOOVA herbicidal rating: rated three to four weeks after treatment; for herbicidal effect rating, MOOVA: rated 3-4 weeks after treatment
Cyperus iria = experiment: Preemergence weed control under flooded paddy conditions, CYPIR (Rice Flatsedge); type: in vivo; settings: preemergence, flooded paddy; for CYPIR herbicidal rating: rated three to four weeks after treatment; for herbicidal effect rating, CYPIR: rated 3-4 weeks after treatment
Sagittaria pygmaea, L. = experiment: Preemergence weed control under flooded paddy conditions, SAGPY (Arrowhead (Pygmaea)); type: in vivo; settings: preemergence, flooded paddy; for SAGPY herbicidal rating: rated three to four weeks after treatment; for herbicidal effect rating, SAGPY: rated 3-4 weeks after treatment
[2] = test system: Oryza sativa, (L.) Tebonnet; experiment: Rice tolerance to post-transplant applications under flooded paddy conditions (Example 187), ORYSAT (Rice, Tebonnet); settings: for ORYSAT herbicidal rating (rice tolerance): rated three to four weeks after treatment; for herbicidal effect rating ORYSAT: rated 3-4 weeks after treatment; on herbicidal effect rating ORYSAT: meaning of each grade not given here
[3] = test system: Cyperus serotinus, Rottb.; experiment: Preemergence weed control under flooded paddy conditions, CYPSE (Flatsedge); type: in vivo; settings: preemergence; for CYPSE herbicidal rating: rated three to four weeks after treatment; for herbicidal effect rating, CYPSE: rated 3-4 weeks after treatment
[4] = test system: Echinochloa oryzoides (Ard.) Fritsch.; experiment: Preemergence weed control under flooded paddy conditions, ECHORC (Watergrass (Calif.)); type: in vivo; settings: preemergence, flooded paddy; for ECHORC herbicidal rating: rated three to four weeks after treatment; for herbicidal effect rating, ECHORC: rated 3-4 weeks after treatment

Cc1ccc(OC(C)(C)C(=O)OC(C)(C)C)c(-c2nsc3ccc(-n4c(=O)cc(C(F)(F)F)n(C)c4=O)cc23)c1 [Example 514, Propionic acid, 2-{{2-{5-[3,6-dihydro-3-methyl-2,6-dioxo-4-(trifluoromethyl)-1(2H)-pyrimidinyl]-1,2-benzisothiazol-3-yl}-p-tolyl}oxy}-2-methyl-, tert-butyl ester]
7.0: CYPIR herbicidal rating (Cyperus iria; 0.2500 kg/ha)
0.0: CYPIR herbicidal rating (Cyperus iria; 0.0320 kg/ha) | CYPIR herbicidal rating (Cyperus iria; 0.0620 kg/ha) | SAGPY herbicidal rating (Sagittaria pygmaea, L.; 0.0320 kg/ha) | SAGPY herbicidal rating (Sagittaria pygmaea, L.; 0.0620 kg/ha) | SAGPY herbicidal rating (Sagittaria pygmaea, L.; 0.1250 kg/ha) | SAGPY herbicidal rating (Sagittaria pygmaea, L.; 0.2500 kg/ha) | CYPSE herbicidal rating ([3]; 0.0320 kg/ha) | CYPSE herbicidal rating ([3]; 0.0620 kg/ha) | CYPSE herbicidal rating ([3]; 0.1250 kg/ha) | CYPSE herbicidal rating ([3]; 0.2500 kg/ha) | ECHORC herbicidal rating ([4]; 0.0320 kg/ha)
2.0: CYPIR herbicidal rating (Cyperus iria; 0.1250 kg/ha) | ORYSAT herbicidal rating (rice tolerance) ([2]; 0.0320 kg/ha) | ORYSAT herbicidal rating (rice tolerance) ([2]; 0.0620 kg/ha) | ECHORC herbicidal rating ([4]; 0.1250 kg/ha)
1.0: ORYSAT herbicidal rating (rice tolerance) ([2]; 0.1250 kg/ha) | ECHORC herbicidal rating ([4]; 0.0620 kg/ha)
8.0: ECHORC herbicidal rating ([4]; 0.2500 kg/ha)
4.0: ORYSAT herbicidal rating (rice tolerance) ([2]; 0.2500 kg/ha)
9.0: MOOVA herbicidal rating ([1]; 0.0320 kg/ha) | MOOVA herbicidal rating ([1]; 0.0620 kg/ha) | MOOVA herbicidal rating ([1]; 0.1250 kg/ha) | MOOVA herbicidal rating ([1]; 0.2500 kg/ha)

Cc1ccc(OC(C)(C)C(=O)O)c(-c2nsc3ccc(-n4c(=O)cc(C(F)(F)F)n(C)c4=O)cc23)c1 [Example 515, Propionic acid, 2-{{2-{5-[3,6-dihydro-3-methyl-2,6-dioxo-4-(trifluoromethyl)-1(2H)-pyrimidinyl]-1,2-benzisothiazol-3-yl}-p-tolyl}oxy}-2-methyl-]
7.0: CYPIR herbicidal rating (Cyperus iria; 0.2500 kg/ha)
8.0: ECHORC herbicidal rating ([4]; 0.1250 kg/ha)
4.0: CYPIR herbicidal rating (Cyperus iria; 0.1250 kg/ha) | ORYSAT herbicidal rating (rice tolerance) ([2]; 0.1250 kg/ha)
9.0: MOOVA herbicidal rating ([1]; 0.0320 kg/ha) | MOOVA herbicidal rating ([1]; 0.0620 kg/ha) | MOOVA herbicidal rating ([1]; 0.1250 kg/ha) | MOOVA herbicidal rating ([1]; 0.2500 kg/ha) | ECHORC herbicidal rating ([4]; 0.2500 kg/ha)
6.0: ORYSAT herbicidal rating (rice tolerance) ([2]; 0.2500 kg/ha) | ECHORC herbicidal rating ([4]; 0.0620 kg/ha)
0.0: CYPIR herbicidal rating (Cyperus iria; 0.0320 kg/ha) | SAGPY herbicidal rating (Sagittaria pygmaea, L.; 0.0320 kg/ha) | SAGPY herbicidal rating (Sagittaria pygmaea, L.; 0.0620 kg/ha) | SAGPY herbicidal rating (Sagittaria pygmaea, L.; 0.1250 kg/ha) | SAGPY herbicidal rating (Sagittaria pygmaea, L.; 0.2500 kg/ha) | ORYSAT herbicidal rating (rice tolerance) ([2]; 0.0320 kg/ha) | CYPSE herbicidal rating ([3]; 0.0320 kg/ha) | CYPSE herbicidal rating ([3]; 0.0620 kg/ha) | CYPSE herbicidal rating ([3]; 0.1250 kg/ha) | CYPSE herbicidal rating ([3]; 0.2500 kg/ha)
2.0: CYPIR herbicidal rating (Cyperus iria; 0.0620 kg/ha) | ORYSAT herbicidal rating (rice tolerance) ([2]; 0.0620 kg/ha) | ECHORC herbicidal rating ([4]; 0.0320 kg/ha)

Cc1nsc2ccc(-n3c(=O)cc(C(F)(F)F)n(CCF)c3=O)cc12 [Example 516, 2,4(1H,3H)-Pyrimidinedione, 1-(2-fluoroethyl)-3-(3-methyl-1,2-benzisothiazol-5-yl)-6-(trifluoromethyl)-]
0.0: herbicidal effect rating, CYPIR (Cyperus iria; Rate 0.0320 kg/ha) | herbicidal effect rating, CYPIR (Cyperus iria; Rate 0.0620 kg/ha) | herbicidal effect rating, CYPIR (Cyperus iria; Rate 0.1250 kg/ha) | herbicidal effect rating, SAGPY (Sagittaria pygmaea, L.; Rate 0.0320 kg/ha) | herbicidal effect rating, SAGPY (Sagittaria pygmaea, L.; Rate 0.0620 kg/ha) | herbicidal effect rating, SAGPY (Sagittaria pygmaea, L.; Rate 0.1250 kg/ha) | herbicidal effect rating, SAGPY (Sagittaria pygmaea, L.; Rate 0.2500 kg/ha) | herbicidal effect rating ORYSAT ([2]; Rate 0.0320 kg/ha) | herbicidal effect rating, CYPSE ([3]; Rate 0.0320 kg/ha) | herbicidal effect rating, CYPSE ([3]; Rate 0.0620 kg/ha) | herbicidal effect rating, CYPSE ([3]; Rate 0.1250 kg/ha) | herbicidal effect rating, CYPSE ([3]; Rate 0.2500 kg/ha) | herbicidal effect rating, ECHORC ([4]; Rate 0.0320 kg/ha) | herbicidal effect rating, ECHORC ([4]; Rate 0.0620 kg/ha) | herbicidal effect rating, ECHORC ([4]; Rate 0.1250 kg/ha) | herbicidal effect rating, ECHORC ([4]; Rate 0.2500 kg/ha)
8.0: herbicidal effect rating, MOOVA ([1]; Rate 0.1250 kg/ha)
2.0: herbicidal effect rating, CYPIR (Cyperus iria; Rate 0.2500 kg/ha) | herbicidal effect rating ORYSAT ([2]; Rate 0.1250 kg/ha)
3.0: herbicidal effect rating ORYSAT ([2]; Rate 0.2500 kg/ha)
4.0: herbicidal effect rating, MOOVA ([1]; Rate 0.0320 kg/ha)
9.0: herbicidal effect rating, MOOVA ([1]; Rate 0.2500 kg/ha)
1.0: herbicidal effect rating ORYSAT ([2]; Rate 0.0620 kg/ha)
6.0: herbicidal effect rating, MOOVA ([1]; Rate 0.0620 kg/ha)
